For 30 compounds, IC50 results are on record in patent publication US6750228B1, “Aromatic sulfone hydroxamic acid metalloprotease inhibitor” (priority 1997, dated 2004).

As a reminder, the IC50 is the concentration needed to halve the response being measured.

Assay in all cases: biochemical
One assay concerns the target T1, MMP-13 (Homo sapiens, UniProt P45452).
T1 construct: made in house; host or cells: baculovirus / insect cells
As to conditions: recombinant human MMP-13, MCA peptide substrate 4 μM, pH 7.5, room temperature; read-out: MMP-13 IC50. Put shortly: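 Assay buffer 100 mM Tris-HCl, 100 mM NaCl, 10 mM CaCl2, pH 7.5. Activated MMP + inhibitor, 5 min RT; then methoxycoumarin peptide substrate, 4 μM final. Readout fluorescence; IC50 calculated.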

A further assay concerns the target T2, MMP-1 (Homo sapiens, UniProt P03956).
T2 construct: made in house; host or cells: transfected HT-1080 cells (provided by Dr. Harold Welgus, Washington University)
T2 sequence (P03956 100-469): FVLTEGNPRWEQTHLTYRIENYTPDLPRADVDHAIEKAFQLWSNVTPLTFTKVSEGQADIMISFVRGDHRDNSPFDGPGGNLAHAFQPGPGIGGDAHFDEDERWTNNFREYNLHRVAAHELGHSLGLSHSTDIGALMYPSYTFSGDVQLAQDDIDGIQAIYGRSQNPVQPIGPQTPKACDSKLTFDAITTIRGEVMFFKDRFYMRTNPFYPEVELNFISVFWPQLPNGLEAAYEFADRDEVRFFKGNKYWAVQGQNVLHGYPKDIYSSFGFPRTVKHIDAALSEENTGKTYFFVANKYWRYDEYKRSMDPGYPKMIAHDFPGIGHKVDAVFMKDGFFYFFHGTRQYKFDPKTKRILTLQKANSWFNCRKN
The following applies: recombinant human MMP-1, MCA peptide substrate 4 μM, pH 7.5, room temperature; read-out: MMP-1 IC50. Put shortly: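 APMA- or trypsin-activated enzymes were preincubated with inhibitor for 5 min at room temperature, then the fluorogenic substrate MCA-Pro-Leu-Gly-Leu-Dpa-Ala-Arg-NH2 was added to a final 4 μM.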

The next assay concerns the target T3, MMP-2 (Homo sapiens, UniProt P08253).
T3 construct: made in house; provided by Dr. Gregory Goldberg, Washington University
T3 sequence (P08253 110-660): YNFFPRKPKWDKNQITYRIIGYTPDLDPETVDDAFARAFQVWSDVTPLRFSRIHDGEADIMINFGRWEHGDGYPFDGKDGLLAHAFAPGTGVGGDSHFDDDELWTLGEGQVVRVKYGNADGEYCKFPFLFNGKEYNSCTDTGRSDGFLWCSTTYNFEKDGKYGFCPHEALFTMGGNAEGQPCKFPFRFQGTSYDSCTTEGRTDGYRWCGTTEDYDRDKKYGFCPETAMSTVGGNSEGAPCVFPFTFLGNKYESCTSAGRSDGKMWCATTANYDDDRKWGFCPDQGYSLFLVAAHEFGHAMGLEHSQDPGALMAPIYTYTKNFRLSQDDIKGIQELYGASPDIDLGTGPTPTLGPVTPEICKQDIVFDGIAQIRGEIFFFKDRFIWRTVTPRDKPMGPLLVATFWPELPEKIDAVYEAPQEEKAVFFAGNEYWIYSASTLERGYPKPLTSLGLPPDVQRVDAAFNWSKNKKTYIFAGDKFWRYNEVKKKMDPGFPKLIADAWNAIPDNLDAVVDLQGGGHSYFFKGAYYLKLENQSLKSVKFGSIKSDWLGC
As to conditions: recombinant human MMP-2, MCA peptide substrate 4 μM, pH 7.5, room temperature; read-out: MMP-2 IC50. Put shortly:
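APMA- or trypsin-activated human MMPs (MMP-1 from transfected HT-1080 cells, MMP-2 from transfected cells) preincubated with inhibitor in 1% DMSO at room temperature, then 4 μM MCA-Pro-Leu-Gly-Leu-Dpa-Ala-Arg-NH2 added in Tris/NaCl/CaCl2 buffer pH 7.5. IC50 from fluorescence reduction versus inhibitor concentration.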

Molecules are shown by their SMILES.

On to `O=C(CCCCN1CCCC1)N1CCC(C(=O)NO)(S(=O)(=O)c2ccc(Oc3ccc(C(F)(F)F)cc3)cc2)CC1` [Example 341], for which the IC50 on MMP-13 was 0.6 nM; at MMP-1 it was greater than 10 µM; at MMP-2 it was 0.2 nM.
For `COCCN(CCCCC(=O)N1CCC(C(=O)NO)(S(=O)(=O)c2ccc(Oc3ccc(C(F)(F)F)cc3)cc2)CC1)CCOC` [Example 342], the IC50 on MMP-13 is 4 nM; on MMP-1, greater than 10 µM; at MMP-2, 0.3 nM.
For `O=C(CCCCN1CCNCC1)N1CCC(C(=O)NO)(S(=O)(=O)c2ccc(Oc3ccc(C(F)(F)F)cc3)cc2)CC1` [Example 343], the IC50 at MMP-13 is 1.7 nM; at MMP-1, greater than 10 µM; on MMP-2 it was 0.8 nM.
For `CCN(CCCCC(=O)N1CCC(C(=O)NO)(S(=O)(=O)c2ccc(Oc3ccc(C(F)(F)F)cc3)cc2)CC1)Cc1ccncc1` [Example 344] the same measures were 2.9 nM, greater than 10 µM and 0.65 nM.
For `CCCN(CCCCC(=O)N1CCC(C(=O)NO)(S(=O)(=O)c2ccc(Oc3ccc(C(F)(F)F)cc3)cc2)CC1)CC1CC1` [Example 346] the same measures were 1.2 nM, greater than 10 µM and 0.2 nM.
As to `COCCNCCCCC(=O)N1CCC(C(=O)NO)(S(=O)(=O)c2ccc(Oc3ccc(C(F)(F)F)cc3)cc2)CC1` [Example 347], the IC50 at MMP-13 was 3 nM; on MMP-1 it was greater than 10 µM; at MMP-2, 0.7 nM.
For the compound `O=C(NO)C1(S(=O)(=O)c2ccc(Oc3ccc(OC(F)(F)F)cc3)cc2)CCN(Cc2cc(Cl)cc(Cl)c2)CC1` [Example 348], the IC50 at MMP-13 is 16.5 nM; at MMP-1 it was greater than 10 µM; on MMP-2 it was 0.8 nM.
`C#CCN1CCC(C(=O)NO)(S(=O)(=O)c2ccc(Oc3ccc(OC(F)(F)F)cc3)cc2)CC1` [Example 349]: the IC50 is 0.2 nM at MMP-13, 2.6 µM at MMP-1 and less than 0.1 nM at MMP-2.
With `O=C(CCc1cnc[nH]1)N1CCC(C(=O)NO)(S(=O)(=O)c2ccc(Oc3ccc(OC(F)(F)F)cc3)cc2)CC1` [Example 350], the results for the IC50 at MMP-13, at MMP-1 and on MMP-2 were 0.1 nM, 6 µM and less than 0.1 nM, respectively.
For the compound `O=C(NO)C1(S(=O)(=O)c2ccc(Oc3ccc(OC(F)(F)F)cc3)cc2)CCN(c2ccccn2)CC1` [Example 352], the half-maximal inhibitory concentration (IC50) was 1.4 nM on MMP-13, greater than 10 µM on MMP-1 and 0.3 nM at MMP-2.
Regarding `COc1cccc(NC(=O)N2CCC(C(=O)NO)(S(=O)(=O)c3ccc(Oc4ccc(OC(F)(F)F)cc4)cc3)CC2)c1` [Example 353], the IC50 at MMP-13 was 0.3 nM; at MMP-1 it was greater than 10 µM; on MMP-2, less than 0.1 nM.
Regarding `O=C(Nc1c(Cl)cccc1Cl)N1CCC(C(=O)NO)(S(=O)(=O)c2ccc(Oc3ccc(OC(F)(F)F)cc3)cc2)CC1` [Example 355], the IC50 at MMP-13 is 0.4 nM; on MMP-1, 7 µM; at MMP-2 it was less than 0.1 nM.
For `COc1ccccc1NC(=O)N1CCC(C(=O)NO)(S(=O)(=O)c2ccc(Oc3ccc(OC(F)(F)F)cc3)cc2)CC1` [Example 357] the same measures were 0.3 nM, greater than 10 µM and 0.1 nM.
For `O=C(Nc1ccc(Cl)c(Cl)c1)N1CCC(C(=O)NO)(S(=O)(=O)c2ccc(Oc3ccc(OC(F)(F)F)cc3)cc2)CC1` [Example 359] the same measures were 34.9 nM, greater than 10 µM and 12.2 nM.
As to `O=C(Nc1c(F)cccc1F)N1CCC(C(=O)NO)(S(=O)(=O)c2ccc(Oc3ccc(OC(F)(F)F)cc3)cc2)CC1` [Example 361], the IC50 is 0.5 nM on MMP-13, 5 µM at MMP-1 and less than 0.1 nM at MMP-2.
For `O=C(Nc1ccc(F)cc1F)N1CCC(C(=O)NO)(S(=O)(=O)c2ccc(Oc3ccc(OC(F)(F)F)cc3)cc2)CC1` [Example 363], the IC50 came out at 0.4 nM at MMP-13, 8.8 µM on MMP-1 and 0.2 nM on MMP-2.
The matching figures for `O=C(Nc1ccccc1C(F)(F)F)N1CCC(C(=O)NO)(S(=O)(=O)c2ccc(Oc3ccc(OC(F)(F)F)cc3)cc2)CC1` [Example 364]: 1 nM, greater than 10 µM and 0.2 nM.
For `O=C(Nc1ccccc1Cl)N1CCC(C(=O)NO)(S(=O)(=O)c2ccc(Oc3ccc(OC(F)(F)F)cc3)cc2)CC1` [Example 365] the same measures were 0.3 nM, greater than 10 µM and 0.1 nM.
For `O=C(Nc1ccc(C(F)(F)F)cc1)N1CCC(C(=O)NO)(S(=O)(=O)c2ccc(Oc3ccc(OC(F)(F)F)cc3)cc2)CC1` [Example 366] the same measures were 13 nM, greater than 10 µM and 2.5 nM.
Turning to `O=C(NO)C1(S(=O)(=O)c2ccc(Oc3ccc(C(F)(F)F)cc3)cc2)CCN(c2ncccc2[N+](=O)[O-])CC1` [Example 374], the IC50 was 3.3 nM on MMP-13, greater than 10 µM at MMP-1 and 4 nM on MMP-2.
For the compound `O=C(NO)C1(S(=O)(=O)c2ccc(Oc3ccc(C(F)(F)F)cc3)cc2)CCN(c2ncccc2C(F)(F)F)CC1` [Example 375], the IC50 at MMP-13 was 16.9 nM; on MMP-1 it was greater than 10 µM; on MMP-2, 15.6 nM.
On to `CC(=O)Nc1ccc(Oc2ccc(S(=O)(=O)C3(C(=O)NO)CCN(C4CC4)CC3)cc2)cc1` [Example 378], for which the IC50 amounted to 1.7 nM at MMP-13, 0.2 µM on MMP-1 and 0.3 nM at MMP-2.
The matching figures for `O=C(c1ncc[nH]1)N1CCC(C(=O)NO)(S(=O)(=O)c2ccc(Oc3ccc(OC(F)(F)F)cc3)cc2)CC1` [Example 379]: 0.3 nM, greater than 10 µM and 0.1 nM.
With `Cc1ccc(C(=O)C2CCN(c3ccc(S(=O)(=O)C4(C(=O)NO)CCN(C5CC5)CC4)cc3)CC2)cc1C` [Example 383], the IC50 at MMP-13 is 3 nM; at MMP-1 it was greater than 10 µM; on MMP-2, 700 nM.
For `Cn1ccnc1CN1CCC(C(=O)NO)(S(=O)(=O)c2ccc(Oc3ccc(OC(F)(F)F)cc3)cc2)CC1` [Example 386] the same measures were 0.4 nM, 2.1 µM and 0.2 nM.
The matching figures for `O=C(NO)C1(S(=O)(=O)c2ccc(N3CCC(Sc4ccccc4)CC3)cc2)CCN(C2CC2)CC1` [Example 389]: 1.7 nM, greater than 10 µM and 16.1 nM.
For the compound `O=C(NO)C1(S(=O)(=O)c2ccc(Oc3ccc(OC(F)(F)F)cc3)cc2)CCN(c2ccncc2)CC1` [Example 391], the IC50 at MMP-13 is 0.1 nM; at MMP-1, 5.4 µM; at MMP-2 it was less than 0.1 nM.
Take `O=C(NO)C1(S(=O)(=O)c2ccc(Oc3ccc(OC(F)(F)F)cc3)cc2)CCN(c2cccnc2)CC1` [Example 392]: the IC50 at MMP-13 is 0.2 nM; at MMP-1, greater than 10 µM; at MMP-2, 0.1 nM.
In the case of `O=C(c1ccc2ccccc2c1)C1CCN(c2ccc(S(=O)(=O)C3(C(=O)NO)CCN(C4CC4)CC3)cc2)CC1` [Example 393], the values for the IC50 on MMP-13, at MMP-1 and on MMP-2 were 4.5 nM, greater than 10 µM and 427 nM, respectively.
The matching figures for `O=C(NO)C1(S(=O)(=O)c2ccc(Oc3ccc(C(F)(F)F)cc3)cc2)CCN(c2ccccn2)CC1` [Example 395]: 0.9 nM, greater than 10 µM and 0.5 nM.
